Source: PubChem BioAssay (NCI)
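A five-concentration, 48-hour dose response in 96-well plates underlies each endpoint, interpolated linearly between surrounding concentrations. The concentration for 50% growth inhibition is given as GI50. TGI: concentration producing complete growth inhibition.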

Key:
Test in all cases: DTP human tumour cell line panel, 48 h
T-47D breast = system: T-47D breast
MOLT-4 leukemia = system: MOLT-4 leukemia
SF-295 CNS = system: SF-295 CNS
OVCAR-8 ovarian = system: OVCAR-8 ovarian
UO-31 renal = system: UO-31 renal
BT-549 breast = system: BT-549 breast
M14 melanoma = system: M14 melanoma
NCI-H226 lung = system: NCI-H226 lung
NCI-H460 lung = system: NCI-H460 lung
HOP-62 NSCLC = system: HOP-62 NSCLC

Structure (SMILES) | GI50 (T-47D breast) [µM] | TGI (T-47D breast) [µM] | GI50 (MOLT-4 leukemia) [µM] | TGI (MOLT-4 leukemia) [µM] | GI50 (SF-295 CNS) [µM] | TGI (SF-295 CNS) [µM] | GI50 (OVCAR-8 ovarian) [µM] | TGI (OVCAR-8 ovarian) [µM] | GI50 (UO-31 renal) [µM] | TGI (UO-31 renal) [µM] | GI50 (BT-549 breast) [µM] | TGI (BT-549 breast) [µM] | GI50 (M14 melanoma) [µM] | TGI (M14 melanoma) [µM] | GI50 (NCI-H226 lung) [µM] | TGI (NCI-H226 lung) [µM] | GI50 (NCI-H460 lung) [µM] | TGI (NCI-H460 lung) [µM] | GI50 (HOP-62 NSCLC) [µM] | TGI (HOP-62 NSCLC) [µM]
O=C1CC(N2C(=O)/C(=C/C(Cl)=C\c3ccc([N+](=O)[O-])cc3)SC2=S)C(=O)N1c1ccc(O)cc1 (stereo not given) | 2.45 | 15.8 | 0.544 | 15.3 | 1.31 | 2.7 | 2.16 | 14.2 | 1.35 | 2.79 | 2.03 | 4.21 | 1.46 | 3.31 | 2.41 | 6.82 | 2.55 | 6.75 | 2.26 | 6.63
COc1ccc(NC(=O)c2ccc(NC3=C(Cl)C(=O)N(Cc4ccccc4)C3=O)cc2)c(OC)c1 | 38.9 | > 100 | 9.94 | 36.2 | 25.7 | 99.1 | 29.2 | > 100 | 40.5 | > 100 | 13.1 | 45 | 18.5 | 48 | 43.9 | > 100 | 38.4 | > 100 | 19 | 53.7
Nc1ncn([C@H]2C[C@H](OP(=O)(O)OC[C@H]3O[C@@H](n4cnc5c(=O)[nH]c(N)nc54)C[C@@H]3O)[C@@H](CO)O2)c(=O)n1 | > 100 | > 100 | > 100 | > 100 | > 100 | > 100 | 26.6 | > 100 | > 100 | > 100 | > 100 | > 100 | > 100 | > 100 | > 100 | > 100 | 7.44 | > 100 | 9.27 | > 100
N#Cc1c(N/N=C\c2ccc(Cl)cc2)nc(N)nc1N1CCOCC1 | > 100 | > 100 | 13.6 | 34.4 | 33.2 | > 100 | 31.4 | > 100 | 39.6 | > 100 | > 100 | > 100 | 67.4 | > 100 | 53.6 | > 100 | 87.7 | > 100 | 86.6 | > 100
COc1ccc(OC)c(/C=C/c2ccnc3ccccc23)c1 | – | 29.5 | – | 16.2 | – | 4.89 | – | 1.88 | – | 6.99 | – | 14.4 | – | 17.8 | – | 4.74 | – | 12.3 | – | 18
Oc1ccccc1/C=N\NC(=S)N/N=C/c1ccccc1O | 3.19 | 54.5 | 1.43 | 22.4 | 0.249 | 0.987 | 2.34 | 51.1 | 0.489 | 4.91 | 13.9 | > 100 | 1.63 | 6.33 | 2.26 | > 100 | 0.62 | 12.1 | 4.22 | > 100
C=CC(=O)Nc1cccc(Oc2nc(Nc3ccc(N4CCN(C)CC4)cc3OC)ncc2Cl)c1 | 2.87 | 15.5 | 2.57 | > 23.4 | 2.21 | 5.81 | 2.08 | 8.45 | 1.03 | 2.32 | 1.99 | 4.58 | 1.82 | 3.47 | 1.81 | 5.66 | 3.49 | > 34.4 | 3.01 | 12.1
CC(C)Cc1ccc(C(C)C(=O)NCc2ccc(Cn3c(=O)sn(CCCI)c3=O)cc2)cc1 (stereo not given) | 1.64 | 5.93 | 0.511 | > 28.3 | 1.56 | 3.08 | 0.523 | 1.85 | 0.407 | 1.49 | 0.571 | 1.81 | 0.429 | 1.34 | 0.884 | 2.32 | 1.36 | 3.08 | 1.53 | 3.6
CN(C)Cc1c(C(=O)NCCOc2ccc(C(=O)NO)cc2)oc2ccccc12 | 0.163 | 0.777 | 0.114 | 1.53 | 0.225 | 0.713 | 0.0807 | 3.99 | 0.296 | 2.66 | 0.519 | 13.8 | 0.223 | 1.68 | 0.626 | 7.6 | 0.221 | > 100 | 0.247 | 12.1
COc1cc(CCNC(=O)OC(C)(C)C)c2c(c1OC)SSSSS2 | 2.77 | 5.92 | 5.46 | > 100 | 2.76 | 6.43 | 3.53 | 11.7 | 2.18 | 5.47 | 2.54 | 5.06 | 4.13 | 50.7 | 4.3 | 24.4 | 2.04 | 4.81 | 3.71 | 15.3
C=CC(=O)N1CC[C@H](n2nc(C#Cc3cc(OC)cc(OC)c3)c3c(N)ncnc32)C1 | 5.22 | > 100 | 5.02 | 69.3 | 15.5 | > 100 | 8.36 | > 100 | 1.32 | > 100 | 1.05 | 9.56 | 15.3 | > 100 | 6.42 | > 100 | 9.97 | > 100 | 5.43 | > 100
